The numbers were not newly measured in US20100021530A1, “ENHANCED TRANS-KERATIN DRUG DELIVERY” (Innovation Biomedical Devices, Inc., priority 2008, published 2010), which cites them from elsewhere.

For this series, the system named is Tinea unguium or onychomycosis (nail fungus). The settings on record: topical, after a year of treatment, at best.

As for `Cc1cc(C2CCCCC2)n(O)c(=O)c1` [ciclopirox], the cure rate result was “around 20%”.
